# Results from ChEMBL document CHEMBL1154053, “The structure-based design, synthesis, and biological evaluation of DNA-binding amide linked bisintercalating bisanthrapyrazole anticancer compounds” (Bioorg Med Chem, 2009).
# How the values were obtained:
# [1] = test system: K562; assay: Growth inhibition of human K562 cells by MTS method; format: functional, cell-based
# [2] = molecular target: DNA topoisomerase 2-alpha (Homo sapiens, UniProt P11388); assay: Inhibition of decatenation activity of human topoisomerase 2alpha
# DNA topoisomerase 2-alpha, sequence (P11388 whole entry): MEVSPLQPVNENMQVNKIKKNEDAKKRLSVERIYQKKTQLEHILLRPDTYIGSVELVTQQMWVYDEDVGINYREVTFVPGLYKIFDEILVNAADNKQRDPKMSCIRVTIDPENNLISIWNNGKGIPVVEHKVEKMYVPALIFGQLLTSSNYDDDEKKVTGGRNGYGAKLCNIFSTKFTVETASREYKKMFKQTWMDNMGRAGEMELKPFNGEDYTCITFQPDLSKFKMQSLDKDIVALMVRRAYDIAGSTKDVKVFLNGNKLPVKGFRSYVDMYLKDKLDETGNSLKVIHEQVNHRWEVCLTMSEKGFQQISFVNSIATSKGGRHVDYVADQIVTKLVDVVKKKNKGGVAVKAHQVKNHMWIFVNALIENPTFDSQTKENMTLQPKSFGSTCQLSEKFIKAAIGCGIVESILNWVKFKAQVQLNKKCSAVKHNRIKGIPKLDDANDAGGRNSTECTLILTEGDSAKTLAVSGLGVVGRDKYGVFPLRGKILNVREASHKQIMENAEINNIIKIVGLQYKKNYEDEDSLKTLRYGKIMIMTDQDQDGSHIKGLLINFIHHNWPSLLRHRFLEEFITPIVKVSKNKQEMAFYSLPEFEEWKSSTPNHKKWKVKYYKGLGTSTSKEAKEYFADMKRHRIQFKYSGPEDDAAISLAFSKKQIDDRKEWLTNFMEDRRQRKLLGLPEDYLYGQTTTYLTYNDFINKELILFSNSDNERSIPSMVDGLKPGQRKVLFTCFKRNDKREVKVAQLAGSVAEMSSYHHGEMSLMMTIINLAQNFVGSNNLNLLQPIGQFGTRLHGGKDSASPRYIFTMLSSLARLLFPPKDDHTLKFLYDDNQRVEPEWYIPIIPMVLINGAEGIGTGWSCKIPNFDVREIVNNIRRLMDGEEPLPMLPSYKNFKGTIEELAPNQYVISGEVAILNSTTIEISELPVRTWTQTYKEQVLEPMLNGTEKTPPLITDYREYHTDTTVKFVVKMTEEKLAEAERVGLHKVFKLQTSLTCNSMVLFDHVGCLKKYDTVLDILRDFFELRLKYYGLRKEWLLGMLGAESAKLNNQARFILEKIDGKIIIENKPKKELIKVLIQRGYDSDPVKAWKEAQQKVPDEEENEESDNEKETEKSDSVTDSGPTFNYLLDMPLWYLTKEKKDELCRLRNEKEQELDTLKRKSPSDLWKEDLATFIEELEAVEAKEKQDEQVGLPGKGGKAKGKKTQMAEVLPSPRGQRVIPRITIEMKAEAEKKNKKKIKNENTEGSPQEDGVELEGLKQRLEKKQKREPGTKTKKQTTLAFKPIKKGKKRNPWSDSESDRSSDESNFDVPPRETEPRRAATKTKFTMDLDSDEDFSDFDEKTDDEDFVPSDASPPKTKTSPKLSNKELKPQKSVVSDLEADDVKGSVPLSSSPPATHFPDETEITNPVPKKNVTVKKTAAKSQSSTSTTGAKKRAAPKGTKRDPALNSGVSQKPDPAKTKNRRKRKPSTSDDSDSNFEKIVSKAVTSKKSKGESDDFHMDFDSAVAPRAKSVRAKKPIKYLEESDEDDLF
# [3] = test system: Calf thymus DNA; assay: Binding affinity to calf thymus DNA assessed as change in melting temperature at 2 uM by thermal denaturation assay; format: nucleic-acid assay; settings: Bos taurus
# [4] = test system: K562; assay: Resistance factor, ratio of IC50 for human K/VP.5 cells to IC50 for human K562 cells; format: functional
# [5] = Growth inhibition of human K/VP.5 cells by MTS method; format: functional
IC50 [1],IC50 [2],ΔTm [3],Compound,Ratio IC50 [4],IC50 [5]
3.6 µM,18 µM,10.2 °C,CN(CCN)CCn1nc2c3c(cccc31)C(=O)c1c(Cl)cccc1-2,0.43,1.5 µM
3.1 µM,10 µM,5.4 °C,CN(CCO)CCn1nc2c3c(cccc31)C(=O)c1c(Cl)cccc1-2,0.63,1.9 µM
3.5 µM,7 µM,21.8 °C,CN(CCNC(=O)CCC(=O)NCCN(C)CCn1nc2c3c(cccc31)C(=O)c1c(Cl)cccc1-2)CCn1nc2c3c(cccc31)C(=O)c1c(Cl)cccc1-2,0.44,1.6 µM
3.6 µM,25 µM,1.1 °C,CN(CCN=[N+]=[N-])CCn1nc2c3c(cccc31)C(=O)c1c(Cl)cccc1-2,–,–
5.7 µM,25 µM,17.8 °C,CN(CCNC(=O)CCCC(=O)NCCN(C)CCn1nc2c3c(cccc31)C(=O)c1c(Cl)cccc1-2)CCn1nc2c3c(cccc31)C(=O)c1c(Cl)cccc1-2,0.39,2.3 µM
–,–,17.8 °C,COc1cccc2c1C(=O)c1c(O)c3c(c(O)c1C2=O)C[C@@](O)(C(=O)CO)C[C@@H]3O[C@H]1C[C@H](N)[C@H](O)[C@H](C)O1,–,–
4.6 µM,22 µM,4.8 °C,CN(CCNC(=O)CCCCCC(=O)NCCN(C)CCn1nc2c3c(cccc31)C(=O)c1c(Cl)cccc1-2)CCn1nc2c3c(cccc31)C(=O)c1c(Cl)cccc1-2,0.55,2.5 µM
6.7 µM,48 µM,6.8 °C,CN(CCNC(=O)CCCCC(=O)NCCN(C)CCn1nc2c3c(cccc31)C(=O)c1c(Cl)cccc1-2)CCn1nc2c3c(cccc31)C(=O)c1c(Cl)cccc1-2,0.48,3.3 µM
2.6 µM,42 µM,9.6 °C,CN(CCNC(=O)CC(=O)NCCN(C)CCn1nc2c3c(cccc31)C(=O)c1c(Cl)cccc1-2)CCn1nc2c3c(cccc31)C(=O)c1c(Cl)cccc1-2,0.77,2 µM
